The values below come from patent US10681909B2, “Herbicidal triazoles” (FMC Corporation, priority 2014, dated 2020).

Test [1] relates to horseweed. Put plainly: Test E preemergence. The test is classed as in vivo, Conyza canadensis. Particulars: scale 0 to 100. An excerpt: (§1) Seeds of plant species selected from corn (Zea mays), soybean (Glycine max), lambsquarters (Chenopodium album), poinsettia, wild (wild poinsettia, Euphorbia heterophylla), pigweed, palmer (palmer pigweed, Amaranthus palmeri), waterhemp (common waterhemp, Amaranthus rudis), surinam grass (Brachiaria decumbens), crabgrass, large (large crabgrass, Digitaria sanguinalis), crabgrass, Brazilian (Brazilian crabgrass, Digitaria horizontalis), panicum, fall (fall panicum, Panicum dichotomiflorum), foxtail, giant (giant foxtail, Setaria faberii), foxtail, green (green foxtail, Setaria viridis), goosegrass (Eleusine indica), johnsongrass (Sorghum halepense), ragweed (common ragweed, Ambrosia elatior), barnyardgrass (Echinochloa crus-galli), sandbur (southern sandbur, Cenchrus echinatus), arrowleaf sida (Sida rhombifolia), ryegrass, Italian (Italian ryegrass, Lolium multiflorum), dayflower, VA (Virginia dayflower, Commelina virginica), field bindweed (Convolvulus arvensis), cocklebur (common cocklebur, Xanthium strumarium), morningglory (Ipomoea coccinea), nightshade (eastern black nightshade, Solanum ptycanthum), kochia (Kochia scoparia), nutsedge, yellow (yellow nutsedge, Cyperus esculentus), smartweed (ladysthumb smartweed, Polygonum persicaria), velvetleaf (Abutilon theophrasti), horseweed (Conyza canadensis), and beggarticks (hairy beggarticks, Bidens pilosa), were planted into a silt loam soil and treated preemergence with test chemicals formulated in a non-phytotoxic solvent mixture which included a surfactant.
(§2) At the same time, plants from these crop and weed species and also waterhemp_RES1, (ALS & Triazine resistant common waterhemp, Amaranthus rudis), and waterhemp_RES2, (ALS & HPPD resistant common waterhemp, Amaranthus rudis) were planted in pots containing Sunshine Redi-Earth® planting medium comprising spaghnum peat moss, vermiculite, starter nutrients and dolomitic limestone were treated with postemergence applications of test chemicals formulated in the same manner. Plants ranged in height from 2 to 18 cm for postemergence treatments (1- to 4-leaf stage). Treated plants and controls were maintained in a greenhouse for 14 to 21 d, after which time all species were compared to controls and visually evaluated. Plant response ratings, summarized in Table E, are based on a scale of 0 to 100 where 0 is no effect and 100 is complete control. A dash (-) response means no test result.

Test [2] deals with horseweed. In words: Test E postemergence. Particulars: scale 0 to 100. The test is classed as in vivo, Conyza canadensis.
From the text: as §1, §2

The test system of test [3] is cocklebur. In words: Test E preemergence. The test is classed as in vivo, Xanthium strumarium. Particulars: scale 0 to 100.
From the text: as §1, §2

In test [4] the test system is smartweed. In words: Test E preemergence. The test is classed as in vivo, Polygonum persicaria. Particulars: scale 0 to 100.
From the text: as §1, §2

The test system of test [5] is barnyardgrass. In words: Test C flooded paddy test. The test is classed as in vivo, Echinochloa crus-galli. Particulars: Flood, applied to paddy water, rating after 13 to 15 d. An excerpt: (§3) At time of treatment, test pots were flooded to 3 cm above the soil surface, treated by application of test compounds directly to the paddy water, and then maintained at that water depth for the duration of the test. Treated plants and controls were maintained in a greenhouse for 13 to 15 d, after which time all species were compared to controls and visually evaluated. […] A dash (-) response means no test result.

The test system of test [6] is rice. Put plainly: Test C flooded paddy test. The test is classed as in vivo, Oryza sativa. Particulars: Flood, applied to paddy water, rating after 13 to 15 d.
From the text: as §3

Test [7] deals with ducksalad. In words: Test C flooded paddy test. The test is classed as in vivo, Heteranthera limosa. The conditions noted are these: Flood, applied to paddy water, rating after 13 to 15 d.
From the text: as §3

Test [8] has as its system sedge, umbrella. Put plainly: Test C flooded paddy test. The test is classed as in vivo, Cyperus difformis. The conditions noted are these: Flood, applied to paddy water, rating after 13 to 15 d.
From the text: as §3

The subject of test [9] is smartweed. In words: Test E postemergence. The test is classed as in vivo, Polygonum persicaria. The conditions noted are these: scale 0 to 100. As for the experimental part: […]
as §2, with “Plants ranged in height from 2 to 18 cm for postemergence treatments (1- to 4-leaf stage).” left out, “Plant response ratings, summarized in Table E, are based on a scale of 0 to 100 where 0 is no effect and 100 is complete control. A dash (-) response means no test result.” left out

The subject of test [10] is poinsettia, wild. In words: Test E postemergence. The test is classed as in vivo, Euphorbia heterophylla. The conditions noted are these: scale 0 to 100.
From the text: as §1, §2

Each structure is given as a SMILES string.

Take `Fc1ccc(-c2nc(OCC(F)(F)F)n(Cc3ccnc(C(F)(F)F)c3)n2)cc1` [Compound 30]: the Plant response rating in test [1] (31 g ai/ha), in test [1] (62 g ai/ha), in test [1] (125 g ai/ha) and in [1] (250 g ai/ha) was 100 in each case.

In the case of `COc1nc(-c2ccc(Cl)cc2)nn1Cc1ccnc(C(F)(F)F)c1` [Compound 28], the Plant response rating in test [2] (31 g ai/ha) is recorded as 20; in [2] (62 g ai/ha), 20; in test [2] (125 g ai/ha), 35; in test [2] (250 g ai/ha), 40.

With `CCCc1nc(-c2ccc(F)cc2)nn1Cc1ccnc(C(F)(F)F)c1` [Compound 6, 4-[[3-(4-fluorophenyl)-5-propyl-1H-1,2,4-triazol-1-yl]methyl]-2-(trifluoromethyl)pyridine], the Plant response rating in test [3] (16 g ai/ha) was 0; in test [3] (31 g ai/ha) it was 0; in test [3] (62 g ai/ha), 0; in test [3] (250 g ai/ha) it was 10; in [4] (16 g ai/ha), 20; in [4] (31 g ai/ha) it was 50. Also, the Plant response rating came to 60 in test [4] (62 g ai/ha), 95 in [4] (125 g ai/ha) and 95 in test [4] (250 g ai/ha).

For the compound `Cn1nc(-c2ccc(F)cc2)nc1Oc1cccc(C(F)(F)F)c1` [Compound 5, 3-(4-fluorophenyl)-1-methyl-5-[3-(trifluoromethyl)phenoxy]-1H-1,2,4-triazole], the “Barnyardgrass plant response rating (0 to 100)” value in [5] (31 g ai/ha) is on record as 10; in test [5] (62 g ai/ha), 10; in test [5] (125 g ai/ha), 15; in test [5] (250 g ai/ha), 15. Besides, the “Rice plant response rating (0 to 100)” value in [6] (31 g ai/ha), in [6] (62 g ai/ha), in test [6] (125 g ai/ha) and in test [6] (250 g ai/ha) was 0 in each case. In addition, the “Ducksalad plant response rating (0 to 100)” value in test [7] (31 g ai/ha) was found to be 20; in test [7] (62 g ai/ha), 30; in test [7] (125 g ai/ha), 40; in [7] (250 g ai/ha) it was 60. The “Sedge, Umbrella plant response rating (0 to 100)” value was found to be 0 in test [8] (31 g ai/ha), 0 in test [8] (62 g ai/ha), 20 in test [8] (125 g ai/ha) and 40 in test [8] (250 g ai/ha).

For `CCc1nc(-c2ccc(C(F)(F)F)cc2)nn1Cc1ccnc(C(F)(F)F)c1` [Compound 1, 4-[[5-ethyl-3-[4-(trifluoromethyl)phenyl]-1H-1,2,4-triazol-1-yl]methyl]-2-(trifluoromethyl)pyridine], the Plant response rating in test [9] (125 g ai/ha) turned out to be 30; in [9] (250 g ai/ha), 80; in test [3] (16 g ai/ha) it was 0; in test [3] (31 g ai/ha) it was 0; in test [3] (62 g ai/ha), 0; in [3] (125 g ai/ha) it was 10. For the same compound, the Plant response rating in test [3] (250 g ai/ha) came out at 30; in test [4] (16 g ai/ha), 25; in [4] (31 g ai/ha), 40; in test [4] (62 g ai/ha), 50; in test [4] (125 g ai/ha), 60; in test [4] (250 g ai/ha) it was 80. In addition, the Plant response rating in test [10] (16 g ai/ha) is 60; in [10] (31 g ai/ha) it was 70; in test [10] (62 g ai/ha) it was 75; in [10] (125 g ai/ha) it was 80; in [10] (250 g ai/ha) it was 90.
